In ChEMBL document CHEMBL5291721, “A preclinical secondary pharmacology resource illuminates target-adverse drug reaction associations of marketed drugs” (Nat Commun, 2023):

Assays:
Histamine H3 receptor = Histamine H3 receptor (Homo sapiens, UniProt Q9Y5N1)
[1] = molecular target: Prostaglandin G/H synthase 1 (Homo sapiens, UniProt P23219); assay type: functional
D(3) dopamine receptor = D(3) dopamine receptor (Homo sapiens, UniProt P35462)
Adenosine receptor A3 = molecular target: T1, Adenosine receptor A3 (Homo sapiens, UniProt P0DMS8)
T1 sequence (P0DMS8 whole entry): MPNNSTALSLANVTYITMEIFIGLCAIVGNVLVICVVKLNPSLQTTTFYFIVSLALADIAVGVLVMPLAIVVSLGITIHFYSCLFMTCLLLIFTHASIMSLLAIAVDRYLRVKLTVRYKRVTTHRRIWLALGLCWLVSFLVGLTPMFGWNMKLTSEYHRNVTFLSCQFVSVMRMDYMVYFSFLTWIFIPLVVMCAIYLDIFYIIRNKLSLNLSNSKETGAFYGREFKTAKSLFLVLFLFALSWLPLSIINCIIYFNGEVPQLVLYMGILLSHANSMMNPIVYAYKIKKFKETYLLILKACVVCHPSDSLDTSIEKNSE

[2] = molecular target: T2, 5-hydroxytryptamine receptor 1A (Homo sapiens, UniProt P08908)
T2 sequence (P08908 whole entry): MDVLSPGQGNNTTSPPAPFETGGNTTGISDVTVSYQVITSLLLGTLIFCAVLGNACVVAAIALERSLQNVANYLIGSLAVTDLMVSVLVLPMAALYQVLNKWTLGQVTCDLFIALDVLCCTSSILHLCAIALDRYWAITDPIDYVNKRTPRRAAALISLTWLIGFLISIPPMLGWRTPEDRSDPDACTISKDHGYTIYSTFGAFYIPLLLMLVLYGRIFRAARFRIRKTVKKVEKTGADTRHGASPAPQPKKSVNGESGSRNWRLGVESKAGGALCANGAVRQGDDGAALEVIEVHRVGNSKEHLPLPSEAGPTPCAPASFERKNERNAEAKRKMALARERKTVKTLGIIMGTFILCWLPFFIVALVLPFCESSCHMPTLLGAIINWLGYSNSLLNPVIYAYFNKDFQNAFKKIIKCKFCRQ

Acetylcholinesterase = Acetylcholinesterase (Homo sapiens, UniProt P22303); assay type: functional
[3] = molecular target: 5-hydroxytryptamine receptor 2B (Homo sapiens, UniProt P41595); assay type: functional, cell-based
5-hydroxytryptamine receptor 2B, sequence (P41595 whole entry): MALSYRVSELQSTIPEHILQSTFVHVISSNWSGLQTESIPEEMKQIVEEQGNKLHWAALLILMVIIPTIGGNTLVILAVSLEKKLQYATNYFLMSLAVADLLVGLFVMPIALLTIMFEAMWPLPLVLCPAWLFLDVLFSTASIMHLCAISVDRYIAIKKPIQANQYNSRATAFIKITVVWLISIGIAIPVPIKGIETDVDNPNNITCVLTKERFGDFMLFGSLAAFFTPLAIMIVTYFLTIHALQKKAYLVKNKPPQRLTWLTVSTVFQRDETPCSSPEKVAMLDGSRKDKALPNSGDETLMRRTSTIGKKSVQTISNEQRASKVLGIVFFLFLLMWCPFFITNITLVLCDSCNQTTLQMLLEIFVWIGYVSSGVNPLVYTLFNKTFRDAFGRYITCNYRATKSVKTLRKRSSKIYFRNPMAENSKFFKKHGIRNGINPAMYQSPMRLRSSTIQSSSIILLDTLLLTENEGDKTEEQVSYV

Androgen receptor = molecular target: T3, Androgen receptor (Homo sapiens, UniProt P10275)
T3 sequence (P10275 whole entry): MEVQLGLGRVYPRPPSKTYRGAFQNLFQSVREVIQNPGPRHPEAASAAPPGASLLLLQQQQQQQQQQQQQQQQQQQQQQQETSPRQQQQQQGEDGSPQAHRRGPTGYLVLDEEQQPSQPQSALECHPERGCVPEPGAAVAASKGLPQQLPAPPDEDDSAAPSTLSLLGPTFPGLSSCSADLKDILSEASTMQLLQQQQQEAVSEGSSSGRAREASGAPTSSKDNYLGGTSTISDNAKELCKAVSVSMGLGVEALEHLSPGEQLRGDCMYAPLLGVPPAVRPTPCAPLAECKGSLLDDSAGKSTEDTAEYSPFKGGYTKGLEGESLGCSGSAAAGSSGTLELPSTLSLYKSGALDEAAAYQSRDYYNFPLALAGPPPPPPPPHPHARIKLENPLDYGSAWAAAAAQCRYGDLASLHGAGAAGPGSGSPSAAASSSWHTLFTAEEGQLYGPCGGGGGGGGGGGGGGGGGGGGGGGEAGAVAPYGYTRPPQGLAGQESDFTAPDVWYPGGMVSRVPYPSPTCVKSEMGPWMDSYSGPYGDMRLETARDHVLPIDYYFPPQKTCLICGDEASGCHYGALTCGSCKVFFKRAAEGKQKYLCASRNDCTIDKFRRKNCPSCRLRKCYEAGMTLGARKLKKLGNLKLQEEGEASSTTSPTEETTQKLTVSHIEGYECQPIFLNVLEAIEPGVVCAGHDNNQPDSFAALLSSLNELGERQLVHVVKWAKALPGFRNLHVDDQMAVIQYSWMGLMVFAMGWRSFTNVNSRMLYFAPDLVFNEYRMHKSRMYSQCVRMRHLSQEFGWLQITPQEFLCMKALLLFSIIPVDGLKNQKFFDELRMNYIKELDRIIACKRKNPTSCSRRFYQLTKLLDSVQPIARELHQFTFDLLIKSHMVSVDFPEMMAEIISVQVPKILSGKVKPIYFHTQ

[4] = molecular target: Gamma-aminobutyric acid receptor subunit alpha-1 (Rattus norvegicus, UniProt P62813)
Gamma-aminobutyric acid receptor subunit alpha-1, sequence (P62813 whole entry): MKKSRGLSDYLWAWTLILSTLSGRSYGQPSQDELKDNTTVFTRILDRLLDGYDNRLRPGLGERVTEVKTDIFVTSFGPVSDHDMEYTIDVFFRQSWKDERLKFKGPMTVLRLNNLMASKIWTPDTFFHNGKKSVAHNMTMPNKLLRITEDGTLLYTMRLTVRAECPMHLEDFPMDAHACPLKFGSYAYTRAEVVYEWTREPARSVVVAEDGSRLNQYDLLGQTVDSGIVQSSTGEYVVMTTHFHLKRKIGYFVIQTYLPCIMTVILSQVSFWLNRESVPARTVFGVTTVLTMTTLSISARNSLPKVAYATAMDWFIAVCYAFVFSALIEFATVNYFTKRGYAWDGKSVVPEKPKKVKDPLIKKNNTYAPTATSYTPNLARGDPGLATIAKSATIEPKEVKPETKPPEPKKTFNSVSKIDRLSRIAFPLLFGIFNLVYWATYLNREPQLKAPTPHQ

[5] = molecular target: cGMP-inhibited 3',5'-cyclic phosphodiesterase 3A (Homo sapiens, UniProt Q14432); assay type: functional
cGMP-inhibited 3',5'-cyclic phosphodiesterase 3A, sequence (Q14432 whole entry): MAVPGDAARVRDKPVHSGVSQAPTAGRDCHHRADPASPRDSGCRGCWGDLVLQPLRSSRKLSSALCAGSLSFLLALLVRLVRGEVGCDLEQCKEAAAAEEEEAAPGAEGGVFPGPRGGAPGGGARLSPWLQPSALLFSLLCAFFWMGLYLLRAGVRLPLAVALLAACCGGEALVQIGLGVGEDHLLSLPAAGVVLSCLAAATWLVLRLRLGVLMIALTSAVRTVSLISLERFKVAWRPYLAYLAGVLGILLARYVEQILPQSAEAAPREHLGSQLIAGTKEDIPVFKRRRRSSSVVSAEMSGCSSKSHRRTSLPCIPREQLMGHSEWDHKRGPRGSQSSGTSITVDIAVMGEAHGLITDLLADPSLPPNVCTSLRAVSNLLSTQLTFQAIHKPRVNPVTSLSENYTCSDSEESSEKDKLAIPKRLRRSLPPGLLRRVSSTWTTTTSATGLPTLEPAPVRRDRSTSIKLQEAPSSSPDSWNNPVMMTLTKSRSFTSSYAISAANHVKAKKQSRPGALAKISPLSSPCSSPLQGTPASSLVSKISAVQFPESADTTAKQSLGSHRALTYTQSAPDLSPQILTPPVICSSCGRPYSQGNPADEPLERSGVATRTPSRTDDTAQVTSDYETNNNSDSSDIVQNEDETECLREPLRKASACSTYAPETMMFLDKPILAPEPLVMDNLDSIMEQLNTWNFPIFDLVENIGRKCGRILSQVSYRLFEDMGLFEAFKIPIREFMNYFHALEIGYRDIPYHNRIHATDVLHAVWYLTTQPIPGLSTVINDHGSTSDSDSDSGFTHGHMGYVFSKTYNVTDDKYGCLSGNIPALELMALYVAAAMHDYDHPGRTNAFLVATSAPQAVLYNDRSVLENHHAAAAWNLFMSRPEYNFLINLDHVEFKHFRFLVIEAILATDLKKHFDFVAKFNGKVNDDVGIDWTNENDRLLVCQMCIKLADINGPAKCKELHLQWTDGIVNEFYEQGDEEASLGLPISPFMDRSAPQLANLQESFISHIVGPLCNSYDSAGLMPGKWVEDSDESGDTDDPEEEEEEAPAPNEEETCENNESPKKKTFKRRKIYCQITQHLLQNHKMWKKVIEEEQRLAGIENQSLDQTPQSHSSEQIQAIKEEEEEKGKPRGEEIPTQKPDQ

[6] = molecular target: Voltage-gated inwardly rectifying potassium channel KCNH2 (Homo sapiens, UniProt Q12809); assay type: functional; settings: read-out: AC50
Voltage-gated inwardly rectifying potassium channel KCNH2, sequence (Q12809 whole entry): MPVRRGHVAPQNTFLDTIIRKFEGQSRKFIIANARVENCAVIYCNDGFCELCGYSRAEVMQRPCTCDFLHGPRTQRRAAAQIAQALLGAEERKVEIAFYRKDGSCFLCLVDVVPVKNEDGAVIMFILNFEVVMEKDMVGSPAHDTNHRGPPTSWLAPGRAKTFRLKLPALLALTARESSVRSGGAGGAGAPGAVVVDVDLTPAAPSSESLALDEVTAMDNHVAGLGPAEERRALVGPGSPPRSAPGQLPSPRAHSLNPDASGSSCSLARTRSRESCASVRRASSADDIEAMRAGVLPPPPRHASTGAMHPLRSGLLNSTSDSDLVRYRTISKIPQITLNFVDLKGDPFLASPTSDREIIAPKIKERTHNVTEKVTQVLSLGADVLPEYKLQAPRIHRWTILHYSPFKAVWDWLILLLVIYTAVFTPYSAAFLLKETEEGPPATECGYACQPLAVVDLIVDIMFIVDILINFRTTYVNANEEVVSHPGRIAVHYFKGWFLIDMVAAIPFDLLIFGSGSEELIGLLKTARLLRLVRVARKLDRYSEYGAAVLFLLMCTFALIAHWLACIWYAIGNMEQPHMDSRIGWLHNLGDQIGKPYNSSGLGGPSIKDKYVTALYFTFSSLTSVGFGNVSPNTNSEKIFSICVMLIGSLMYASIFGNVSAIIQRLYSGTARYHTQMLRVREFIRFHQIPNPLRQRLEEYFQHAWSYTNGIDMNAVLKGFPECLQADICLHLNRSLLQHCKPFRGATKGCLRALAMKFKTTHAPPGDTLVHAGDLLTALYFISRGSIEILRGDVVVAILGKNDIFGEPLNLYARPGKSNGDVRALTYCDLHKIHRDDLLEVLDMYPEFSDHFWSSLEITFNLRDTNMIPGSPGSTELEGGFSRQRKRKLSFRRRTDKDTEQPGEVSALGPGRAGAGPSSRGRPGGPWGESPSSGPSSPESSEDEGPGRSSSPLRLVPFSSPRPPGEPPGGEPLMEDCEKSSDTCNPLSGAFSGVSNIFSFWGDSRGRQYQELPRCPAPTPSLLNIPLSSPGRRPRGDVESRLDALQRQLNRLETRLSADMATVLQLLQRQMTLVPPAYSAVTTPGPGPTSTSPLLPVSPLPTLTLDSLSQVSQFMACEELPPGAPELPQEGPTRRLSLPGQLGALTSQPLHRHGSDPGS

Thromboxane A2 receptor = molecular target: T4, Thromboxane A2 receptor (Homo sapiens, UniProt P21731); assay type: functional, cell-based
T4 sequence (P21731 whole entry): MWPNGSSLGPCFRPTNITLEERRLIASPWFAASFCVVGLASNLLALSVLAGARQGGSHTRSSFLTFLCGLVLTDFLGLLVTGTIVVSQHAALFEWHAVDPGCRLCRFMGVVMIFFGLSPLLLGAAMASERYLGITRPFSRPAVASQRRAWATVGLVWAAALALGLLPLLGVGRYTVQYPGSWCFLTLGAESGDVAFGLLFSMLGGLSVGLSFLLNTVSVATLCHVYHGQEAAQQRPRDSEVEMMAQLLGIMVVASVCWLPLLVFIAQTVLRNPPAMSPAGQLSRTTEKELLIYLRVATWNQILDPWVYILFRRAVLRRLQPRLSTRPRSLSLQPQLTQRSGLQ
Further: assay procedure not described here.

Histamine H3 receptor, sequence (Q9Y5N1 whole entry): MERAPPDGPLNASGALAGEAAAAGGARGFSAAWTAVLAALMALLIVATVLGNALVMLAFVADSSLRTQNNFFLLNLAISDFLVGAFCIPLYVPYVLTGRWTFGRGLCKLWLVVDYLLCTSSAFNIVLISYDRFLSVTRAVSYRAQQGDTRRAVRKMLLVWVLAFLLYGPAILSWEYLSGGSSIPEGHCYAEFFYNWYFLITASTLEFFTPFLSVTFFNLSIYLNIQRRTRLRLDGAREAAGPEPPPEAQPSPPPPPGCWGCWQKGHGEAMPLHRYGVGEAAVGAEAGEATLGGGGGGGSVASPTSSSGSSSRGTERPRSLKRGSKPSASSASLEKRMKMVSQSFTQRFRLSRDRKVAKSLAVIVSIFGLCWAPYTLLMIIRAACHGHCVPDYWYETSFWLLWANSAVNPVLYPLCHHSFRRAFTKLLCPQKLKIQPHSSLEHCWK
Prostaglandin G/H synthase 1, sequence (P23219 whole entry): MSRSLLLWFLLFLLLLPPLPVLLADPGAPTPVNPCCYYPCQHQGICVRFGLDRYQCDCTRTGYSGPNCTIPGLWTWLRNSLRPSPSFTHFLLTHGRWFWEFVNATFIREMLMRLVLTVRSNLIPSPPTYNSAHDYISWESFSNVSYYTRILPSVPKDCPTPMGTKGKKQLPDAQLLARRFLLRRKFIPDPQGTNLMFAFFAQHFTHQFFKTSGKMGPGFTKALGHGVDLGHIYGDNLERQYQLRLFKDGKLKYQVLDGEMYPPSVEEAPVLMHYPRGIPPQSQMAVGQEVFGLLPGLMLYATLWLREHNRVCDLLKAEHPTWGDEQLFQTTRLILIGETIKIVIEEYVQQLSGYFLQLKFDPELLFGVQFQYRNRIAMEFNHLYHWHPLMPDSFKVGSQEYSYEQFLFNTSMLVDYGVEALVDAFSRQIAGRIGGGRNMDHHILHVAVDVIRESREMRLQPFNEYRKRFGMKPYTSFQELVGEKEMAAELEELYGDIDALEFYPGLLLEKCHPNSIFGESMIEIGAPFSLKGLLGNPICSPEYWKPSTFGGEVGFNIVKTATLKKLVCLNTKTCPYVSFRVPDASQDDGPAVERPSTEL
D(3) dopamine receptor, sequence (P35462 whole entry): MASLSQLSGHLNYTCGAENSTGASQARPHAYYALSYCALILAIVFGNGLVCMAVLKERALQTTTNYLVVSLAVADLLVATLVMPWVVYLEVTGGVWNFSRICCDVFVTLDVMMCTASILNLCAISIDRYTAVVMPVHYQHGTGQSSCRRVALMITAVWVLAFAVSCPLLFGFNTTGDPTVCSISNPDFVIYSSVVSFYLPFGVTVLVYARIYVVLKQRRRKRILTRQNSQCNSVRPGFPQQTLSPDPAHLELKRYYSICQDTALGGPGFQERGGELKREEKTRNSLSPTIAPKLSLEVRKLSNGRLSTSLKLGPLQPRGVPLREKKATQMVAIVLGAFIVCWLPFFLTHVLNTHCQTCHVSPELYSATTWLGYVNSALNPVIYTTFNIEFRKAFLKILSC

| Structure (SMILES) | AC50 (Histamine H3 receptor) [µM] | AC50 [1] [µM] | AC50 (D(3) dopamine receptor) [µM] | AC50 (Adenosine receptor A3) [µM] | AC50 [2] [µM] | AC50 (Acetylcholinesterase) [µM] | AC50 [3] [µM] | AC50 (Androgen receptor) [µM] | AC50 [4] [µM] | AC50 [5] [µM] | AC50 [6] [µM] | AC50 (Thromboxane A2 receptor) [µM] |
| --- | --- | --- | --- | --- | --- | --- | --- | --- | --- | --- | --- | --- |
| O=C(Oc1ccc2c(c1)CCCN2C(=O)C(Cl)Cl)c1ccco1 [QUINFAMIDE] | > 30 | > 30 | > 30 | 25.6 | > 30 | > 30 | > 30 | > 30 | > 30 | > 30 | > 30 | > 30 |
| O=[N+]([O-])c1cn2c(n1)OC[C@@H](OCc1ccc(OC(F)(F)F)cc1)C2 [PRETOMANID] | > 30 | > 30 | > 30 | > 30 | > 30 | > 30 | > 30 | > 30 | > 30 | > 30 |  | > 30 |
| OC(c1ccccc1)(c1ccccc1)C12CC[N+](CCOCc3ccccc3)(CC1)CC2 | > 30 | > 30 | > 30 | > 30 | > 30 | > 30 | > 30 | > 30 | > 30 | > 30 |  | > 30 |
| CC[C@H]1CN2CC[C@H]1C[C@H]2[C@H](O)c1ccnc2ccc(OC)cc12 [HYDROQUININE] | > 30 | > 30 | > 30 | > 30 | > 30 | > 30 | > 30 | > 30 | > 30 | > 30 | 10 | > 30 |
| CC(=O)OCC(=O)[C@@]1(O)CC[C@H]2[C@@H]3CCC4=CC(=O)C=C[C@]4(C)[C@@]3(Cl)[C@@H](Cl)C[C@@]21C [DICHLORISONE ACETATE] | > 30 | > 30 | > 30 | > 30 | > 30 | > 30 | > 30 | 0.128 | > 30 | > 30 | > 30 | > 30 |
| Nc1ccc(S(=O)(=O)c2cnc(N)s2)cc1 [THIAZOLSULFONE] | > 30 | > 30 | > 30 | 13.8 | > 30 | > 30 | > 30 | > 30 | > 30 | > 30 | > 30 | > 30 |
| O=C(Nc1ccc(Cl)cc1)Nc1ccc(Cl)c(Cl)c1 [TRICLOCARBAN] | > 30 | > 30 | > 30 | 2.08 | > 30 | > 30 | > 30 | > 30 | > 30 | 11.6 | > 30 | > 30 |
| CC1=C(/C=C/C(C)=C/C=C/C(C)=C/C=C/C=C(C)/C=C/C=C(C)/C=C/C2=C(C)CCCC2(C)C)C(C)(C)CCC1 [BETA CAROTENE] | > 30 | 5.22 | 20.8 | > 30 | > 30 | > 30 | > 30 | > 30 | > 30 | > 30 |  | > 30 |
| CCOc1ccc(Cc2cc([C@@H]3O[C@H](CO)[C@@H](O)[C@H](O)[C@H]3O)ccc2Cl)cc1 [DAPAGLIFLOZIN] | > 30 | > 30 | > 30 | > 30 | > 30 | > 30 | > 30 | > 30 | > 30 | > 30 | > 30 | > 30 |
| O=C(O)c1ccccc1C(=O)Nc1ccc(S(=O)(=O)Nc2nccs2)cc1 [PHTHALYLSULFATHIAZOLE] | > 30 | 20 | > 30 | > 30 | > 10 | > 30 | > 30 | > 30 | > 30 | > 30 | > 30 | > 30 |
| Nc1nc2nc[nH]c2c(=S)[nH]1 [THIOGUANINE] | > 30 | 1.32 | > 30 | > 30 | > 30 | > 30 | > 30 | > 30 | > 30 | > 30 |  | > 30 |
| CC(CNC(=O)c1ccccc1)C(=O)OCC(=O)[C@@]12OC(C)(C)O[C@@H]1C[C@H]1[C@@H]3CCC4=CC(=O)C=C[C@]4(C)[C@@]3(F)[C@@H](O)C[C@@]12C (stereo not given in full) [TRIAMCINOLONE BENETONIDE] | > 30 | > 30 | > 30 | > 30 | > 30 | > 30 | > 30 | > 30 | > 30 | > 30 | > 30 | > 30 |
| CC(C)(C)CC(C)(C)c1ccc(O)c(Cc2ccc(Cl)cc2Cl)c1 [CLOFOCTOL] | > 30 | 29.2 | 1.48 | 1.12 | > 30 | > 30 | > 30 | 14.9 | > 30 | 5.81 | 11 | > 30 |
| CC(=O)OCC1=C(C(=O)O)N2C(=O)[C@@H](NC(=O)[C@H](N)c3ccccc3)[C@H]2SC1 [CEPHALOGLYCIN] | > 30 | 26.5 | > 30 | > 30 | > 30 | > 30 | > 30 | > 30 | > 30 | > 30 | > 30 | > 30 |
| CC[C@]1(O)C[C@H]2CN(CCc3c([nH]c4ccccc34)[C@@](C(=O)OC)(c3cc4c(cc3OC)N(C=O)[C@H]3[C@@](O)(C(=O)OC)[C@H](OC(C)=O)[C@]5(CC)C=CCN6CC[C@]43[C@@H]65)C2)C1 [VINCRISTINE] | > 30 | 5.73 | > 30 | > 30 | > 30 | > 30 | > 30 | > 30 | > 30 | > 30 |  | > 30 |
